Reference: ChEMBL document CHEMBL4483862, “Open-source discovery of chemical leads for next-generation chemoprotective antimalarials” (2018)

Tested on: Plasmodium berghei
Experiment: Luciferase/luciferin-expressing antifolate-resistant parasites were used to infect a culture of HepG2 cells that were pre-incubated with compounds. Infected hepatocytes emit light due to the luciferase reaction. Assay results are presented as the percent inhibition of light emission compared to control. […]
Format: functional
Details: sporozoite; for IC90: read-out: LUCIFERASE INFECTION ASSAY - IC90

Cc1ccccc1OCc1occc1C(=O)Nc1cccc(-n2cnnn2)c1
IC50 (HEPG2TOX_HILL_SLOPE 2.96, HEPG2TOX_R_SQUARED 0.854, PBLUC_HILL_SLOPE 2.81, PBLUC_R_SQUARED 0.577, read-out: LUCIFERASE INFECTION ASSAY - IC50): 3.12 µM
IC90: 6.83 µM

COc1cc(/C=C2\COC/C(=C\c3cc(OC)c(OC)c(OC)c3)C2=O)cc(OC)c1OC
IC50 (HEPG2TOX_HILL_SLOPE 2.96, HEPG2TOX_R_SQUARED 0.98, PBLUC_HILL_SLOPE 14, PBLUC_R_SQUARED 0.753, read-out: LUCIFERASE INFECTION ASSAY - IC50): 0.759 µM
IC90: 0.888 µM

CC(=O)c1cccc(-c2ccnc3c2CC(C(=O)NCCc2ccccc2)O3)c1 (centres undefined)
IC50 (HEPG2TOX_HILL_SLOPE 2.91, HEPG2TOX_R_SQUARED 0.95, PBLUC_HILL_SLOPE 2.2, PBLUC_R_SQUARED 0.478, read-out: LUCIFERASE INFECTION ASSAY - IC50): 1.89 µM
IC90: 5.14 µM

COc1ccc(NC(=O)C2(C)Cc3c(-c4cccc(NC(C)=O)c4)ccnc3O2)cc1 (centres undefined)
IC50 (HEPG2TOX_HILL_SLOPE 2.96, HEPG2TOX_R_SQUARED 0.838, PBLUC_HILL_SLOPE 2.85, PBLUC_R_SQUARED 0.605, read-out: LUCIFERASE INFECTION ASSAY - IC50): 1.66 µM
IC90: 3.58 µM

O=C1C=C/C(=N\Nc2ccc3c(c2)OCCO3)c2cccnc21
IC50 (HEPG2TOX_HILL_SLOPE 2.89, HEPG2TOX_R_SQUARED 0.923, PBLUC_HILL_SLOPE 13, PBLUC_R_SQUARED 0.601, read-out: LUCIFERASE INFECTION ASSAY - IC50): 3.33 µM
IC90: 3.95 µM

O=C(c1[nH]nc2ccccc12)N1CCN(Cc2ccc(C(F)(F)F)cc2)CC1
IC50 (HEPG2TOX_HILL_SLOPE 2.95, HEPG2TOX_R_SQUARED 0.96, PBLUC_HILL_SLOPE 4.05, PBLUC_R_SQUARED 0.587, read-out: LUCIFERASE INFECTION ASSAY - IC50): 6.61 µM
IC90: > 10 µM

Cc1cccc(OCCCC(=O)Nc2cc(C)n[nH]2)c1
IC50 (HEPG2TOX_HILL_SLOPE 2.94, HEPG2TOX_R_SQUARED 0.896, PBLUC_HILL_SLOPE 6.3, PBLUC_R_SQUARED 0.571, read-out: LUCIFERASE INFECTION ASSAY - IC50): 0.951 µM
IC90: 1.35 µM

CCOc1ccc(S(=O)(=O)Nc2cc3c(C(=O)OC(C)C)c(C)oc3c3ccccc23)cc1
IC50 (HEPG2TOX_HILL_SLOPE 2.94, HEPG2TOX_R_SQUARED 0.937, PBLUC_HILL_SLOPE 3.2, PBLUC_R_SQUARED 0.642, read-out: LUCIFERASE INFECTION ASSAY - IC50): 1.44 µM
IC90: 2.86 µM

Nc1nccnc1C(=O)NNC(=O)c1cc2c(s1)CCCCCC2
IC50 (HEPG2TOX_HILL_SLOPE 2.95, HEPG2TOX_R_SQUARED 0.777, PBLUC_HILL_SLOPE 11, PBLUC_R_SQUARED 0.184, read-out: LUCIFERASE INFECTION ASSAY - IC50): 3.03 µM
IC90: 3.7 µM

Cc1nn(Cc2ccccc2Cl)c(C)c1CN(C)C(=O)/C=C/c1cnn(-c2ccccc2)c1
IC50 (HEPG2TOX_HILL_SLOPE 2.95, HEPG2TOX_R_SQUARED 0.991, PBLUC_HILL_SLOPE 3.77, PBLUC_R_SQUARED 0.729, read-out: LUCIFERASE INFECTION ASSAY - IC50): 5.47 µM
IC90: 9.8 µM

O=C(/C=C/c1ccco1)Nc1ccc(Cl)c(Cl)c1
IC50 (HEPG2TOX_HILL_SLOPE 2.91, HEPG2TOX_R_SQUARED 0.987, PBLUC_HILL_SLOPE 6.61, PBLUC_R_SQUARED 0.512, read-out: LUCIFERASE INFECTION ASSAY - IC50): 8.1 µM
IC90: 11.3 µM

Cc1cccc2c(=O)nc(CSc3ncnc4sc(-c5ccccc5)cc34)[nH]c12
IC50 (HEPG2TOX_HILL_SLOPE 2.96, HEPG2TOX_R_SQUARED 0.569, read-out: LUCIFERASE INFECTION ASSAY - IC50): > 10 µM
IC90: > 10 µM

Cn1cnc2cnc(Nc3ccc(F)c(Cl)c3)cc21
IC50 (HEPG2TOX_HILL_SLOPE 2.92, HEPG2TOX_R_SQUARED 0.693, read-out: LUCIFERASE INFECTION ASSAY - IC50): > 10 µM
IC90: > 10 µM

COc1ccc(OC)c(CCNc2nc3cnc(-c4ccc5c(c4)OCO5)cc3n2C)c1
IC50 (HEPG2TOX_HILL_SLOPE 2.94, HEPG2TOX_R_SQUARED 0.93, PBLUC_HILL_SLOPE 1.47, PBLUC_R_SQUARED 0.742, read-out: LUCIFERASE INFECTION ASSAY - IC50): 0.558 µM
IC90: 2.5 µM

CCOC(=O)c1sc2ncnc(NCCC(O)(c3ccc(C)o3)C(F)(F)F)c2c1C (centres undefined)
IC50 (HEPG2TOX_HILL_SLOPE 2.98, HEPG2TOX_R_SQUARED 0.521, PBLUC_HILL_SLOPE 13.8, PBLUC_R_SQUARED 0.46, read-out: LUCIFERASE INFECTION ASSAY - IC50): 3.14 µM
IC90: 3.68 µM

CCOc1ccc(C(C)=O)cc1CSc1nc2ccccc2c(=O)n1C(C)COC (centres undefined)
IC50 (HEPG2TOX_HILL_SLOPE 2.93, HEPG2TOX_R_SQUARED 0.419, PBLUC_HILL_SLOPE 1.84, PBLUC_R_SQUARED 0.699, read-out: LUCIFERASE INFECTION ASSAY - IC50): 1.21 µM
IC90: 3.98 µM

COc1ccc(N(Cc2nc(-c3cccs3)oc2C)S(=O)(=O)c2cccs2)cc1
IC50 (HEPG2TOX_HILL_SLOPE 2.9, HEPG2TOX_R_SQUARED 0.761, PBLUC_HILL_SLOPE 1.87, PBLUC_R_SQUARED 0.806, read-out: LUCIFERASE INFECTION ASSAY - IC50): 0.137 µM
IC90: 0.446 µM

CNc1ccccc1C(=O)N/N=C/c1cc(Cl)cc(Cl)c1O
IC50 (HEPG2TOX_HILL_SLOPE 2.97, HEPG2TOX_R_SQUARED 0.147, PBLUC_HILL_SLOPE 9.98, PBLUC_R_SQUARED 0.459, read-out: LUCIFERASE INFECTION ASSAY - IC50): > 9.76 µM
IC90: > 9.76 µM

C/C=C/c1ccc(Oc2nc(C(F)(F)F)nc3ccccc23)c(OC)c1
IC50 (HEPG2TOX_HILL_SLOPE 2.94, HEPG2TOX_R_SQUARED 0.97, PBLUC_HILL_SLOPE 2.81, PBLUC_R_SQUARED 0.724, read-out: LUCIFERASE INFECTION ASSAY - IC50): 3.1 µM
IC90: 6.79 µM

O=C(NC1CC1)c1csc(C(O)c2cccc(C(F)(F)F)c2)n1 (centres undefined)
IC50 (HEPG2TOX_HILL_SLOPE 2.89, HEPG2TOX_R_SQUARED 0.879, PBLUC_HILL_SLOPE 2.14, PBLUC_R_SQUARED 0.663, read-out: LUCIFERASE INFECTION ASSAY - IC50): 0.408 µM
IC90: 1.14 µM

CCCN(CC(=O)Nc1ccc(Cl)cc1Cl)C(=O)c1cn2ccccc2n1
IC50 (HEPG2TOX_HILL_SLOPE 2.93, HEPG2TOX_R_SQUARED 0.207, PBLUC_HILL_SLOPE 1.46, PBLUC_R_SQUARED 0.174, read-out: LUCIFERASE INFECTION ASSAY - IC50): > 10 µM
IC90: > 10 µM

O=C(Nc1nc(CN2CCCC2)cs1)c1ccc(-c2ccccc2)cc1
IC50 (HEPG2TOX_HILL_SLOPE 2.9, HEPG2TOX_R_SQUARED 0.919, read-out: LUCIFERASE INFECTION ASSAY - IC50): > 10 µM
IC90: > 10 µM

Oc1cccc(-c2cnc3cnc(-c4ccccc4Cl)cn23)c1
IC50 (HEPG2TOX_HILL_SLOPE 2.92, HEPG2TOX_R_SQUARED 0.924, PBLUC_HILL_SLOPE 1.11, PBLUC_R_SQUARED 0.809, read-out: LUCIFERASE INFECTION ASSAY - IC50): 1.72 µM
IC90: > 10.3 µM

Cn1c(-c2ccccc2)nc2cnc(Nc3cccc(OC(F)(F)F)c3)cc21
IC50 (HEPG2TOX_HILL_SLOPE 2.98, HEPG2TOX_R_SQUARED 0.826, PBLUC_HILL_SLOPE 1.94, PBLUC_R_SQUARED 0.665, read-out: LUCIFERASE INFECTION ASSAY - IC50): 0.764 µM
IC90: 2.38 µM

COc1ccc(CN2CCN(C(=O)c3ccc(-n4cccn4)cc3)CC2)cc1F
IC50 (HEPG2TOX_HILL_SLOPE 2.97, HEPG2TOX_R_SQUARED 0.899, PBLUC_HILL_SLOPE 2, PBLUC_R_SQUARED 0.568, read-out: LUCIFERASE INFECTION ASSAY - IC50): 3.44 µM
IC90: > 10 µM

CCCOc1c(Cl)cc(C(=O)Nc2nonc2-c2cccs2)cc1Cl
IC50 (HEPG2TOX_HILL_SLOPE 2.94, HEPG2TOX_R_SQUARED 0.74, PBLUC_HILL_SLOPE 28.4, PBLUC_R_SQUARED 0.116, read-out: LUCIFERASE INFECTION ASSAY - IC50): 2.66 µM
IC90: 2.87 µM

Cc1n[n+]2c3c(cnc2s1)CC/C3=C/c1ccccc1
IC50 (HEPG2TOX_HILL_SLOPE 2.96, HEPG2TOX_R_SQUARED 0.5, PBLUC_HILL_SLOPE 7.3, PBLUC_R_SQUARED 0.698, read-out: LUCIFERASE INFECTION ASSAY - IC50): 7.25 µM
IC90: 9.79 µM

Cc1ccc(C(=O)Nc2nc3ccccn3c2C(=O)NC2CCCCC2)cc1
IC50 (HEPG2TOX_HILL_SLOPE 2.97, HEPG2TOX_R_SQUARED 0.276, PBLUC_HILL_SLOPE 14.7, PBLUC_R_SQUARED 0.56, read-out: LUCIFERASE INFECTION ASSAY - IC50): 1 µM
IC90: 1.16 µM

COc1ccc(CNc2nc(C)nc3scc(-c4cccs4)c23)cn1
IC50 (HEPG2TOX_HILL_SLOPE 2.96, HEPG2TOX_R_SQUARED 0.967, read-out: LUCIFERASE INFECTION ASSAY - IC50): > 10 µM
IC90: > 10 µM

CC(C)NC(=O)N1CCc2nc(NCc3cccc(Oc4ccccc4)c3)ncc2C1
IC50 (HEPG2TOX_HILL_SLOPE 2.9, HEPG2TOX_R_SQUARED 0.984, PBLUC_HILL_SLOPE 15.1, PBLUC_R_SQUARED 0.233, read-out: LUCIFERASE INFECTION ASSAY - IC50): 2.86 µM
IC90: 3.31 µM

CC(=O)Nc1ccc(-c2cnc3ccc(-c4ccccc4)nn23)cc1
IC50 (HEPG2TOX_HILL_SLOPE 2.97, HEPG2TOX_R_SQUARED 0.938, PBLUC_HILL_SLOPE 2.21, PBLUC_R_SQUARED 0.595, read-out: LUCIFERASE INFECTION ASSAY - IC50): 1.4 µM
IC90: 3.8 µM

CN(C)CCNc1cc(-c2ccco2)nc2ccccc12
IC50 (HEPG2TOX_HILL_SLOPE 2.93, HEPG2TOX_R_SQUARED 0.885, PBLUC_HILL_SLOPE 3.51, PBLUC_R_SQUARED 0.62, read-out: LUCIFERASE INFECTION ASSAY - IC50): 4.91 µM
IC90: 9.18 µM
